The source of these data is patent US8101598B2 (priority 2006, dated 2012).

The test concerns the target α7-subtype of nicotinic receptors (Rattus norvegicus, UniProt Q05941). In words: biochemical. It is filed as binding.

Where a name gives a salt, the structure may show the parent alone. A value given as a limit tells only on which side of the number the result lay.

α7-subtype of nicotinic receptors, sequence (Q05941 23-502): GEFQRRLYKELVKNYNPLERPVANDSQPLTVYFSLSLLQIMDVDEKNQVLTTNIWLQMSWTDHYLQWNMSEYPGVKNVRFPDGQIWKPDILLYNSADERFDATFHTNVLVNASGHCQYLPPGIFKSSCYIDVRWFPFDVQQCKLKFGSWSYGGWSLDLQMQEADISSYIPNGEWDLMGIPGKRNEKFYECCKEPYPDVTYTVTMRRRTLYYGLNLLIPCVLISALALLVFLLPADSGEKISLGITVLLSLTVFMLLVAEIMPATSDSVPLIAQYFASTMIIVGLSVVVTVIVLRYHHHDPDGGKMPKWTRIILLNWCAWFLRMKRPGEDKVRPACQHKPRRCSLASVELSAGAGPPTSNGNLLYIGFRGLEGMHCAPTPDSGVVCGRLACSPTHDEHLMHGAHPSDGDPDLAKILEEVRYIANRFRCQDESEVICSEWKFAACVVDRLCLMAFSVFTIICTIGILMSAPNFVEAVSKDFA

The term IC50 denotes the concentration that gives 50% inhibition. A high value points to a need for much substance. In the case of `c1cc2c(cc1-c1nnc(N3CCN4CCC3CC4)o1)OCO2` [Compound A1, 4-(5-Benzo[1,3]-dioxol-5-yl-[1,3,4]oxadiazol-2-yl)-1,4-diaza-bicyclo[3.2.2]nonane Fumaric Acid Salt], the half-maximal inhibitory concentration (IC50) was less than 10 nM.
